Experimental data as given in patent US20090299044A1 (priority 2006, published 2009).
Bridge positions count the residues as written; N and C are the ends. Square brackets hold non-standard residues; d marks the D form. Peptide text beside a SMILES is read from it. 1Nal = N[C@@H](Cc1cccc2ccccc12)C(=O)O

Columns and labels:
human Kv1.3 (CHO) = target: T1, human Kv1.3 (CHO) (Homo sapiens, UniProt P22001); assay: cell-based
T1 construct: expressed in transfected cells; host or cells: CHO

human Kv1.1 (HEK293) = target: T2, human Kv1.1 (HEK293) (Homo sapiens, UniProt Q09470); assay: cell-based
T2 construct: expressed in transfected cells; host or cells: HEK293
T2 sequence (Q09470 whole entry): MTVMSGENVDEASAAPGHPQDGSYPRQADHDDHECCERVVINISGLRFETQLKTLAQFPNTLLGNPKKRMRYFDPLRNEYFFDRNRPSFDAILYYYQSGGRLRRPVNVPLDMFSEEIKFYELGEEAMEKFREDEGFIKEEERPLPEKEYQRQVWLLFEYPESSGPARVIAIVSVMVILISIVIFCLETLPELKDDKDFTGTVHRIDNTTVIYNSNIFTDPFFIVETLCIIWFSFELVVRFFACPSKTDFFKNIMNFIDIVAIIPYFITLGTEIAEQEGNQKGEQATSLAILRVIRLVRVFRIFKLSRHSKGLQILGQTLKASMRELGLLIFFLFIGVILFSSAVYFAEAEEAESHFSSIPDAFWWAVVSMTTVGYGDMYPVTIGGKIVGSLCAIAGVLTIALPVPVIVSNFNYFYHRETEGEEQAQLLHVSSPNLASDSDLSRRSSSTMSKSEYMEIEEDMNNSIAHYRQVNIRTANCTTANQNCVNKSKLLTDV

T1 sequence (P22001 whole entry): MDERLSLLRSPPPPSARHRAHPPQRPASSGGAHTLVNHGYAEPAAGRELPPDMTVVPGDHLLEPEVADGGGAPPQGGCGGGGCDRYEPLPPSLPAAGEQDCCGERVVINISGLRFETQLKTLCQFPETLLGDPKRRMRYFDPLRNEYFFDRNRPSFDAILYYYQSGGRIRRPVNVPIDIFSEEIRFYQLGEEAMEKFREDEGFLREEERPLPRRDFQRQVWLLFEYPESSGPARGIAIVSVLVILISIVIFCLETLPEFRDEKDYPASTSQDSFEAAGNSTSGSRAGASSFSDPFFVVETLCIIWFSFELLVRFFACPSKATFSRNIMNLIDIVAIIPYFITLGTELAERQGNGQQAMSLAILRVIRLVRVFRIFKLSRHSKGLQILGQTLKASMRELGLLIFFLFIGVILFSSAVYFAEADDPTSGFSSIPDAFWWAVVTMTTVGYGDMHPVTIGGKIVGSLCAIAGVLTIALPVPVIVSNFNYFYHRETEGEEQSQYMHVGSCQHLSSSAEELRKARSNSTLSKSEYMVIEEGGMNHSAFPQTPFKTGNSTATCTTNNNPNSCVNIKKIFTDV

SMILES | IC50 (human Kv1.3 (CHO)) [nM] | IC50 (human Kv1.1 (HEK293)) [nM]
CC[C@H](C)[C@@H]1NC(=O)[C@H](CCCCN)NC(=O)[C@@H](NC(=O)[C@H](CCCCN)NC(=O)[C@@H](NC(=O)[C@H](CC(N)=O)NC(=O)[C@@H](NC(=O)[C@@H](NC(=O)[C@@H](NC(=O)CN)C(C)C)[C@@H](C)CC)[C@@H](C)CC)C(C)C)CSSC[C@@H]2NC(=O)[C@H](CCCCN)NC(=O)CNC(=O)[C@H](Cc3ccccc3)NC(=O)[C@H](CCCNC(=N)N)NC(=O)[C@H](CCSC)NC(=O)CNC(=O)[C@H](C)NC(=O)[C@H](CCCNC(=N)N)NC(=O)[C@H](CCCCN)NC(=O)[C@@H]3CSSC[C@@H](C(=O)N[C@H](C(=O)N4CCC[C@H]4C(=O)N[C@@H](CCCCN)C(=O)O)[C@@H](C)O)NC(=O)[C@H](Cc4c[nH]cn4)NC(=O)[C@H](CSSC[C@H](NC(=O)[C@H](CCC(N)=O)NC(=O)[C@H](CCCNC(=N)N)NC(=O)[C@H](CO)NC1=O)C(=O)N[C@@H](CC(C)C)C(=O)N[C@@H](CCC(=O)O)C(=O)N1CCC[C@H]1C(=O)N3)NC(=O)[C@H](CCCCN)NC(=O)CNC(=O)[C@H](CC(N)=O)NC(=O)[C@H](CCSC)NC2=O [K20R] (H-GVIINVKCKISRQCLEPCKRAGMRFGKCMNGKCHCTPK-OH; disulfide 8-28, 14-33, 18-35) | 0.00985 | < 0.00152
CC[C@H](C)[C@@H]1NC(=O)[C@H](CCCCN)NC(=O)[C@@H](NC(=O)[C@H](CCCCN)NC(=O)[C@@H](NC(=O)[C@H](CC(N)=O)NC(=O)[C@@H](NC(=O)[C@@H](NC(=O)[C@@H](NC(=O)CN)C(C)C)[C@@H](C)CC)[C@@H](C)CC)C(C)C)CSSC[C@@H]2NC(=O)[C@H](CCCCN)NC(=O)CNC(=O)[C@H](Cc3ccccc3)NC(=O)[C@H](CCCNC(=N)N)NC(=O)[C@H](CCSC)NC(=O)CNC(=O)[C@H](C)NC(=O)[C@H](CCCCN)NC(=O)[C@H](CCC(=O)O)NC(=O)[C@@H]3CSSC[C@@H](C(=O)N[C@H](C(=O)N4CCC[C@H]4C(=O)N[C@@H](CCCCN)C(=O)O)[C@@H](C)O)NC(=O)[C@H](Cc4c[nH]cn4)NC(=O)[C@H](CSSC[C@H](NC(=O)[C@H](CCC(N)=O)NC(=O)[C@H](CCCNC(=N)N)NC(=O)[C@H](CO)NC1=O)C(=O)N[C@@H](CC(C)C)C(=O)N[C@@H](CCC(=O)O)C(=O)N1CCC[C@H]1C(=O)N3)NC(=O)[C@H](CCCCN)NC(=O)CNC(=O)[C@H](CC(N)=O)NC(=O)[C@H](CCSC)NC2=O [K19E] (H-GVIINVKCKISRQCLEPCEKAGMRFGKCMNGKCHCTPK-OH; disulfide 8-28, 14-33, 18-35) | 0.0235 | 0.0137
CC[C@H](C)[C@@H]1NC(=O)[C@H](CCCCN)NC(=O)[C@@H](NC(=O)[C@H](CCCCN)NC(=O)[C@@H](NC(=O)[C@H](CC(N)=O)NC(=O)[C@@H](NC(=O)[C@@H](NC(=O)[C@@H](NC(=O)CN)C(C)C)[C@@H](C)CC)[C@@H](C)CC)C(C)C)CSSC[C@@H]2NC(=O)[C@H](CCCCN)NC(=O)CNC(=O)[C@H](Cc3cccc4ccccc34)NC(=O)[C@H](CCCNC(=N)N)NC(=O)[C@H](CCSC)NC(=O)CNC(=O)[C@H](C)NC(=O)[C@H](CCCCN)NC(=O)[C@H](CCCCN)NC(=O)[C@@H]3CSSC[C@@H](C(=O)N[C@H](C(=O)N4CCC[C@H]4C(=O)N[C@@H](CCCCN)C(=O)O)[C@@H](C)O)NC(=O)[C@H](Cc4c[nH]cn4)NC(=O)[C@H](CSSC[C@H](NC(=O)[C@H](CCC(N)=O)NC(=O)[C@H](CCCNC(=N)N)NC(=O)[C@H](CO)NC1=O)C(=O)N[C@@H](CC(C)C)C(=O)N[C@@H](CCC(=O)O)C(=O)N1CCC[C@H]1C(=O)N3)NC(=O)[C@H](CCCCN)NC(=O)CNC(=O)[C@H](CC(N)=O)NC(=O)[C@H](CCSC)NC2=O [F25Nal] (H-GVIINVKCKISRQCLEPCKKAGMR[1Nal]GKCMNGKCHCTPK-OH; disulfide 8-28, 14-33, 18-35) | 0.0286 | 0.0517
CC[C@H](C)[C@@H]1NC(=O)[C@H](CCCCN)NC(=O)[C@@H](NC(=O)[C@H](CCCCN)NC(=O)[C@@H](NC(=O)[C@H](CC(N)=O)NC(=O)[C@@H](NC(=O)[C@@H](NC(=O)[C@@H](NC(=O)CN)C(C)C)[C@@H](C)CC)[C@@H](C)CC)C(C)C)CSSC[C@@H]2NC(=O)[C@H](CCCCN)NC(=O)CNC(=O)[C@H](Cc3ccccc3)NC(=O)[C@H](CCCNC(=N)N)NC(=O)[C@H](CCSC)NC(=O)CNC(=O)[C@H](C)NC(=O)[C@H](CCCCN)NC(=O)[C@H](CCCCN)NC(=O)[C@@H]3CSSC[C@@H](C(=O)N[C@H](C(=O)N4CCC[C@H]4C(=O)N[C@@H](CCCCN)C(=O)O)[C@@H](C)O)NC(=O)[C@H](Cc4c[nH]cn4)NC(=O)[C@H](CSSC[C@H](NC(=O)[C@H](C)NC(=O)[C@H](CCCNC(=N)N)NC(=O)[C@H](CO)NC1=O)C(=O)N[C@@H](CC(C)C)C(=O)N[C@@H](CCC(=O)O)C(=O)N1CCC[C@H]1C(=O)N3)NC(=O)[C@H](CCCCN)NC(=O)CNC(=O)[C@H](CC(N)=O)NC(=O)[C@H](CCSC)NC2=O [Q13A] (H-GVIINVKCKISRACLEPCKKAGMRFGKCMNGKCHCTPK-OH; disulfide 8-28, 14-33, 18-35) | 0.249 | 0.0217
CC[C@H](C)[C@@H]1NC(=O)[C@H](CCCCN)NC(=O)[C@@H](NC(=O)[C@H](CCCCN)NC(=O)[C@@H](NC(=O)[C@H](CC(N)=O)NC(=O)[C@@H](NC(=O)[C@@H](NC(=O)[C@@H](NC(=O)CN)C(C)C)[C@@H](C)CC)[C@@H](C)CC)C(C)C)CSSC[C@@H]2NC(=O)[C@H](CCCCN)NC(=O)CNC(=O)[C@H](Cc3ccccc3)NC(=O)[C@H](CCCNC(=N)N)NC(=O)[C@H](CCSC)NC(=O)CNC(=O)[C@H](C)NC(=O)[C@H](CCCCN)NC(=O)[C@H](CCCCN)NC(=O)[C@@H]3CSSC[C@@H](C(=O)N[C@H](C(=O)N4CCC[C@H]4C(=O)N[C@@H](CCCCN)C(=O)O)[C@@H](C)O)NC(=O)[C@H](Cc4c[nH]cn4)NC(=O)[C@H](CSSC[C@H](NC(=O)[C@H](CCC(N)=O)NC(=O)[C@H](CCCNC(=N)N)NC(=O)[C@H](CO)NC1=O)C(=O)N[C@@H](CC(C)C)C(=O)N[C@@H](Cc1cccc4ccccc14)C(=O)N1CCC[C@H]1C(=O)N3)NC(=O)[C@H](CCCCN)NC(=O)CNC(=O)[C@H](CC(N)=O)NC(=O)[C@H](CCSC)NC2=O [E16Nal] (H-GVIINVKCKISRQCL[1Nal]PCKKAGMRFGKCMNGKCHCTPK-OH; disulfide 8-28, 14-33, 18-35) | 0.00958 | < 0.00152
CC[C@H](C)[C@@H]1NC(=O)[C@H](CCCCN)NC(=O)[C@@H](NC(=O)[C@H](CCCCN)NC(=O)[C@@H](NC(=O)[C@H](CC(N)=O)NC(=O)[C@@H](NC(=O)[C@@H](NC(=O)[C@@H](NC(=O)CN)C(C)C)[C@@H](C)CC)[C@@H](C)CC)C(C)C)CSSC[C@@H]2NC(=O)[C@H](CCCCN)NC(=O)CNC(=O)[C@H](Cc3ccccc3)NC(=O)[C@H](CCCNC(=N)N)NC(=O)[C@H](CCSC)NC(=O)CNC(=O)[C@H](C)NC(=O)[C@H](CCCCN)NC(=O)[C@H](CCCCN)NC(=O)[C@@H]3CSSC[C@@H](C(=O)N[C@H](C(=O)N4CCC[C@H]4C(=O)N[C@@H](CCC(=O)O)C(=O)O)[C@@H](C)O)NC(=O)[C@H](Cc4c[nH]cn4)NC(=O)[C@H](CSSC[C@H](NC(=O)[C@H](CCC(N)=O)NC(=O)[C@H](CCCNC(=N)N)NC(=O)[C@H](CO)NC1=O)C(=O)N[C@@H](CC(C)C)C(=O)N[C@@H](CCC(=O)O)C(=O)N1CCC[C@H]1C(=O)N3)NC(=O)[C@H](CCCCN)NC(=O)CNC(=O)[C@H](CC(N)=O)NC(=O)[C@H](CCSC)NC2=O [K38E] (H-GVIINVKCKISRQCLEPCKKAGMRFGKCMNGKCHCTPE-OH; disulfide 8-28, 14-33, 18-35) | 0.0258 | 0.0343
CC[C@H](C)[C@@H]1NC(=O)[C@H](CCCCN)NC(=O)[C@@H](NC(=O)[C@H](CCCCN)NC(=O)[C@@H](NC(=O)[C@H](CC(N)=O)NC(=O)[C@@H](NC(=O)[C@@H](NC(=O)[C@@H](NC(=O)CN)C(C)C)[C@@H](C)CC)[C@@H](C)CC)C(C)C)CSSC[C@@H]2NC(=O)[C@H](CCCCN)NC(=O)CNC(=O)[C@H](Cc3ccccc3)NC(=O)[C@H](CCCNC(=N)N)NC(=O)[C@H](CCSC)NC(=O)CNC(=O)[C@H](C)NC(=O)[C@H](CCCCN)NC(=O)[C@H](CCCCN)NC(=O)[C@@H]3CSSC[C@@H](C(=O)N[C@H](C(=O)N4CCC[C@H]4C(=O)N[C@@H](CCCCN)C(=O)O)[C@@H](C)O)NC(=O)[C@H](Cc4c[nH]cn4)NC(=O)[C@H](CSSC[C@H](NC(=O)[C@H](CCC(N)=O)NC(=O)[C@H](CCCNC(=N)N)NC(=O)[C@H](CO)NC1=O)C(=O)N[C@@H](C)C(=O)N[C@@H](CCC(=O)O)C(=O)N1CCC[C@H]1C(=O)N3)NC(=O)[C@H](CCCCN)NC(=O)CNC(=O)[C@H](CC(N)=O)NC(=O)[C@H](CCSC)NC2=O [L15A] (H-GVIINVKCKISRQCAEPCKKAGMRFGKCMNGKCHCTPK-OH; disulfide 8-28, 14-33, 18-35) | 0.0431 | 0.015
CC[C@H](C)[C@@H]1NC(=O)[C@H](CCCCN)NC(=O)[C@@H](NC(=O)[C@H](CCCCN)NC(=O)[C@@H](NC(=O)[C@H](CC(N)=O)NC(=O)[C@@H](NC(=O)[C@@H](NC(=O)[C@@H](NC(=O)CN)C(C)C)[C@@H](C)CC)[C@@H](C)CC)C(C)C)CSSC[C@@H]2NC(=O)[C@H](CCCCN)NC(=O)CNC(=O)[C@H](Cc3ccccc3)NC(=O)[C@H](CCCNC(=N)N)NC(=O)[C@H](CCSC)NC(=O)CNC(=O)[C@H](C)NC(=O)[C@H](CCCCN)NC(=O)[C@H](CCCCN)NC(=O)[C@@H]3CSSC[C@@H](C(=O)N[C@H](C(=O)N4CCC[C@H]4C(=O)N[C@@H](CCCCN)C(=O)O)[C@@H](C)O)NC(=O)[C@H](Cc4c[nH]cn4)NC(=O)[C@H](CSSC[C@H](NC(=O)[C@H](CCC(N)=O)NC(=O)[C@H](CCCNC(=N)N)NC(=O)[C@H](CO)NC1=O)C(=O)N[C@@H](CC(C)C)C(=O)N[C@@H](CCC(=O)O)C(=O)N[C@@H](CCC(=O)O)C(=O)N3)NC(=O)[C@H](CCCCN)NC(=O)CNC(=O)[C@H](CC(N)=O)NC(=O)[C@H](CCSC)NC2=O [P17E] (H-GVIINVKCKISRQCLEECKKAGMRFGKCMNGKCHCTPK-OH; disulfide 8-28, 14-33, 18-35) | 0.0145 | 0.00181
